From article PMC4490784, “Compensatory induction of MYC expression by sustained CDK9 inhibition via a BRD4-dependent mechanism” (eLife, 2015)

Legend:
HeLa cells = experiment: Immunoblotting of MCL-1 and PARP in HeLa cell lysates; assay type: cell-based, human; conditions: 8 hr
Description: Figure 1. i-CDK9 is a potent and selective CDK9 inhibitor that elicits cellular responses indicative of P-TEFb inhibition. (A and B) Structures and selectivity profiles of i-CDK9 (A) and falvopiridol (B). […] (C) In vitro kinase reactions containing affinity-purified CDK9-F-CycT or CDK12-F-CycK and GST-CTD as a substrate were conducted in the presence of the indicated concentrations of i-CDK9. pSer2 and the Flag-tagged kinase in each reaction were detected by Western blotting with anti-pSer2 and anti-Flag antibodies, respectively. (D) HeLa cells were treated for 8 hr with DMSO or the indicated concentrations of i-CDK9. Total cell lysates were examined by immunoblotting for the proteins labeled on the left. DOI: http://dx.doi.org/10.7554/eLife.06535.003 Figure 1—source data 1. Selectivity profile of i-CDK9. DOI: http://dx.doi.org/10.7554/eLife.06535.004 Figure 1—figure supplement 1. Recombinant CDK12-CycK is less sensitive to inhibition by i-CDK9.
Inhibition of phosphorylation of both Pol II CTD and SPT5 is expected to block transcriptional elongation, which will effectively decrease the production of labile proteins from short-lived transcripts.

CDK1-CycB = molecular target: T1, CDK1-CycB (Homo sapiens, UniProt P06493); experiment: AlphaScreen-based kinase assay; assay type: biochemical
T1 construct: purchased Upstate/Millipore
Description: (§1) The inhibitory activity of i-CDK9 for CDK1-CycB (Upstate/Millipore), CDK2-CycA (Invitrogen), CDK4-CycD1 (Novartis), CDK7-CycH-MAT1 (Invitrogen), and CDK9-CycT1 (Invitrogen) was assessed in the AlphaScreen (PerkinElmer, Inc)-based kinase assay developed at Novartis. Briefly, each CDK–cyclin pair was pre-incubated with i-CDK9 for 15 min, followed by addition of kinase substrates (ELK for CDK1 and CDK2, RB for CDK4, and CDK7tide for CDK7 and CDK9). The mixture was incubated at room temperature for additional 4–5 hr. The reaction was stopped and read on Envision (PerkinElmer, Inc). Selectivity against a large panel of over 400 kinases was evaluated using the KINOMEscan platform (DiscoveRx, CA) employing a proprietary active site-directed competition binding assay ([Fabian et al., 2005]). The assay was conducted at two different concentrations of i-CDK9 (1 and 10 µM) by DiscoveRx.

CDK4-CycD1 = CDK4-CycD1 (Homo sapiens, UniProt P11802); experiment: AlphaScreen-based kinase assay; assay type: biochemical
Description: as §1

CDK7-CycH-MAT1 = molecular target: T2, CDK7-CycH-MAT1 (Homo sapiens, UniProt P50613); experiment: AlphaScreen-based kinase assay; assay type: biochemical
T2 construct: purchased Invitrogen
Description: as §1

CDK2-CycA = molecular target: T3, CDK2-CycA (Homo sapiens, UniProt P24941); experiment: AlphaScreen-based kinase assay; assay type: biochemical
T3 construct: purchased Invitrogen
Description: as §1

[1] = molecular target: JAK1(JH1domain-catalytic) (Homo sapiens, UniProt P23458); experiment: KINOMEscan binding assay; parameters: JAK1(JH1domain-catalytic); purchased DiscoveRx KINOMEscan
Description: (§2) As there are no commercial or in-house kinase assays available for CDK3, CDK5, CDK11 and CDK13, the inhibitory abilities of i-CDK9 toward these CDKs were thus evaluated in the DiscoveRx KINOMEscan assay, which is based on a proprietary active site-directed competition-binding platform ([Fabian et al., 2005]).
as §1

CDK9 = CDK9 (Homo sapiens, UniProt P50750); experiment: KINOMEscan binding assay; parameters: purchased DiscoveRx KINOMEscan; conditions: read-out: % Retention on Solid Support
Description: as §2, §1

CDK9-CycT1 = CDK9-CycT1 (Homo sapiens, UniProt P50750); experiment: AlphaScreen-based kinase assay; assay type: biochemical; parameters: purchased Invitrogen
Description: as §1

Chain of CDK9-CycT1 (P50750 whole entry): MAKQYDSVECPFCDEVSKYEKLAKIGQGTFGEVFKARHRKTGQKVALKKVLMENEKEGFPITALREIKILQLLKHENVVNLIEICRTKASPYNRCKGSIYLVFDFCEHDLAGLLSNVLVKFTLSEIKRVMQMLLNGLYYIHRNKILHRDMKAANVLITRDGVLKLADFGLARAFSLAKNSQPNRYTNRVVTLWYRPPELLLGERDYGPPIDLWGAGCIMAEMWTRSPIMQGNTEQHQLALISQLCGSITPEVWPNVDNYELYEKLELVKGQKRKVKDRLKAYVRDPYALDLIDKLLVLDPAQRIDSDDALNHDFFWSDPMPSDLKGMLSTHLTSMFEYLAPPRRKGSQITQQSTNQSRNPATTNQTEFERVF
Chain of CDK9-CycT1 (O60563 whole entry partner): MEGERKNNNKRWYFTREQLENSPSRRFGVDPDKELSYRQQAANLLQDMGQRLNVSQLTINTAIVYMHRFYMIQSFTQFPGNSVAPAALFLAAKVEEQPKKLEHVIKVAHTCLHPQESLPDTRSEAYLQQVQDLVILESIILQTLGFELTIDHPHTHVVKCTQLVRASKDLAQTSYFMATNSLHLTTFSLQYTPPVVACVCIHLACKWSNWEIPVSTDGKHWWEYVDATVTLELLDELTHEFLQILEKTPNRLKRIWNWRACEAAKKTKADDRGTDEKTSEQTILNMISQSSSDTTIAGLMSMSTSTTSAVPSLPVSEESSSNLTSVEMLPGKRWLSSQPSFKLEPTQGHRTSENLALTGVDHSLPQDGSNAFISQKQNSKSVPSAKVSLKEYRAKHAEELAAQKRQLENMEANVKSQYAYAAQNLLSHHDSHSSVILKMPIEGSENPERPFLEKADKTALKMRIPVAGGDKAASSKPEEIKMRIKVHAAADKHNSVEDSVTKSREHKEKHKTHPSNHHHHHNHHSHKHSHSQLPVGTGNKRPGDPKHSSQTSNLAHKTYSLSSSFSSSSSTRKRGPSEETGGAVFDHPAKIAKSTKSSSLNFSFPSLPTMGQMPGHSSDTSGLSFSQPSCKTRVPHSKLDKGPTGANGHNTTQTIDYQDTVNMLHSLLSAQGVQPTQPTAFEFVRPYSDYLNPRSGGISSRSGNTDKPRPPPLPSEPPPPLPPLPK
Chain of JAK1(JH1domain-catalytic) (P23458 854-1154 limits assumed): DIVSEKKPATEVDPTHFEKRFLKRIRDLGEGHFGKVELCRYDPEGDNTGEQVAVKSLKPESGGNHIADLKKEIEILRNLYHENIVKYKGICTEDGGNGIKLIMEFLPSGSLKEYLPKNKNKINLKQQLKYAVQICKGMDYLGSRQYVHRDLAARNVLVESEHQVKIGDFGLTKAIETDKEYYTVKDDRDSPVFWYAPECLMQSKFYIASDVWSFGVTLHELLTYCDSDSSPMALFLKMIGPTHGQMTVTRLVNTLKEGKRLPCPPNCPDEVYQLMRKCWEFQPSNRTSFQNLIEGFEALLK
Chain of CDK9 (P50750 whole entry): as the sequence (P50750 whole entry) above
T1 sequence (P06493 whole entry): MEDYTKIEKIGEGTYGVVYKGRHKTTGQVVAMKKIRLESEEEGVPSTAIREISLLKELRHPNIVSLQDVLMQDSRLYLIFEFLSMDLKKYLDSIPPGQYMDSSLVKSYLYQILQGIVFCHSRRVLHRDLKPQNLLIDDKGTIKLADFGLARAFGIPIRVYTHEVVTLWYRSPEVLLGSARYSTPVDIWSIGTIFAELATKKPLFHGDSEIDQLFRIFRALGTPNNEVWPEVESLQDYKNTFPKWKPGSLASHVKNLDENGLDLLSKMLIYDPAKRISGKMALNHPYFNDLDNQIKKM
T1 sequence (P14635 whole entry partner): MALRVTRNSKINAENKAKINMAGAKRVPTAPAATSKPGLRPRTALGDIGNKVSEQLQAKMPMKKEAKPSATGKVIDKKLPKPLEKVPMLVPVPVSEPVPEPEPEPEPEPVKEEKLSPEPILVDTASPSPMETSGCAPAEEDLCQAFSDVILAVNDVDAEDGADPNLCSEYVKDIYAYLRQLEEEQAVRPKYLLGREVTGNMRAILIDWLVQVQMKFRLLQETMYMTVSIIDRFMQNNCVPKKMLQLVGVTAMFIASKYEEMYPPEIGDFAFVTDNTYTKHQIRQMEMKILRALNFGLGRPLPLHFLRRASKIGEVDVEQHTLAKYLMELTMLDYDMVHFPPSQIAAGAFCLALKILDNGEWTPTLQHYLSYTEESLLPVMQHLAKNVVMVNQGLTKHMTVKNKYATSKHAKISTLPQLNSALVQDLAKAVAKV
T2 sequence (P50613 whole entry): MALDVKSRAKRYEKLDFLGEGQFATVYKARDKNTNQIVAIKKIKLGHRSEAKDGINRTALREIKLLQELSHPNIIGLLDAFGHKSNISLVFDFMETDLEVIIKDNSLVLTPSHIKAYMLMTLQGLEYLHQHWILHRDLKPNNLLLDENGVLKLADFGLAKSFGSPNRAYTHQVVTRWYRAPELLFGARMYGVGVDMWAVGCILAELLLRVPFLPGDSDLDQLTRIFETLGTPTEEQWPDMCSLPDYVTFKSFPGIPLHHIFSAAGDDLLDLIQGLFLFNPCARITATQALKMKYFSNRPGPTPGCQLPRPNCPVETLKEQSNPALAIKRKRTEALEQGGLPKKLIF
T2 sequence (P51946 whole entry partner): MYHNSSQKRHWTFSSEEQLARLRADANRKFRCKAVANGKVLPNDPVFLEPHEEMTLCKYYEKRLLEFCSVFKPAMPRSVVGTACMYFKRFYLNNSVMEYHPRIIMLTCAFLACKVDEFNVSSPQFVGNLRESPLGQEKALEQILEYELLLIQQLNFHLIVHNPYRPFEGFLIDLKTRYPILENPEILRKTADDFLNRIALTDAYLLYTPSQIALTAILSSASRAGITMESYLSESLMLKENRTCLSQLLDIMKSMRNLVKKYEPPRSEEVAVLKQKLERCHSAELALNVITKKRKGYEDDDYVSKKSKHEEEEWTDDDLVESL
T2 sequence (P51948 whole entry partner): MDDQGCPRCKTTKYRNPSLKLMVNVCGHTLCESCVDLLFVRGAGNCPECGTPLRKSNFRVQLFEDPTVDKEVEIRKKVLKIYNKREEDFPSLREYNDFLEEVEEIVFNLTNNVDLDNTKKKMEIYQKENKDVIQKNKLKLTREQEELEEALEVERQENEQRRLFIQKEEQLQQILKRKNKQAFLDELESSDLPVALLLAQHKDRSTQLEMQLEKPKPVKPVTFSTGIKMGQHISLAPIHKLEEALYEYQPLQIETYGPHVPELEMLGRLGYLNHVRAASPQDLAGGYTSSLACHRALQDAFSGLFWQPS
Chain of CDK4-CycD1 (P11802 whole entry): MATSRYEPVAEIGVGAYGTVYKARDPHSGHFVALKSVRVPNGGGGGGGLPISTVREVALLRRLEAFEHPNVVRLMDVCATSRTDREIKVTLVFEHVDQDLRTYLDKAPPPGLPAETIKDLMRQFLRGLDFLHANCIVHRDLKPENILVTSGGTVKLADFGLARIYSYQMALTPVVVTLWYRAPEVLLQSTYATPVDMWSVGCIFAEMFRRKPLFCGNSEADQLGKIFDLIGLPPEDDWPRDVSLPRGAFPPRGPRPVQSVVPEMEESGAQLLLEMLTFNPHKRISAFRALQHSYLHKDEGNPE
Chain of CDK4-CycD1 (P24385 whole entry partner): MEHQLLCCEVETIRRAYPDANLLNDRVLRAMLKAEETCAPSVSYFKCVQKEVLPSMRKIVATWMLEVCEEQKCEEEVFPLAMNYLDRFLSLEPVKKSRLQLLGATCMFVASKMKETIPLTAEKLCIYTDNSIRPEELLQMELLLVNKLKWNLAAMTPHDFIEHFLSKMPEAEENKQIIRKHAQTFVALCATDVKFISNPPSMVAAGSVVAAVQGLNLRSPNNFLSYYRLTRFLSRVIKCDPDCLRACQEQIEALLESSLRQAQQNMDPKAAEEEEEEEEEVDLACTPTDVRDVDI

N[C@H]1CC[C@H](Nc2cc(-c3cccc(NCc4cccc(F)c4)n3)c(Cl)cn2)CC1 [i-CDK9, N2′-(trans-4-aminocyclohexyl)-5′-chloro-N6-(3-fluorobenzyl)-2,4′-bipyridine-2′,6-diamine]
cleavage of PARP (HeLa cells): induced proteolytic cleavage | expression of MCL-1 (HeLa cells): markedly down-regulated | IC50 (CDK1-CycB): 1.7 µM | IC50 (CDK4-CycD1): 1.8 µM | IC50 (CDK7-CycH-MAT1): 2 µM | IC50 (CDK2-CycA): 0.24 µM | % Retention on Solid Support ([1]; 1 µM i-CDK9): 100% | % Retention on Solid Support ([1]; 10 µM i-CDK9): 100% | remaining binding at 1 µM (CDK9; 1 µM i-CDK9): 5.1% | remaining binding at 10 µM (CDK9; 10 µM i-CDK9): 0% | IC50 (CDK9-CycT1): ≤ 0.0004 µM | fold lower activity toward CDK1-CycB, CDK2-CycA, CDK4-CycD1, CDK7-CycH-MAT1 and CDK8-CycC compared to CDK9-CycT1 (CDK9-CycT1; selectivity): at least 600 fold
